Measured values: ChEMBL document CHEMBL1201861, “Genomics of Drug Sensitity in Cancer screening data, Wellcome Trust Sanger Institute”

Columns and labels:
[1] = test system: OAW-42; experiment: cells; type: functional, cell-based, Homo sapiens; details: Homo sapiens, OAW-42;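 further: growth inhibition of OAW-42 cells, read out with a cell viability assay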
Description: SANGER: Inhibition of human OAW-42 cell growth in a cell viability assay.

[2] = test system: UMC-11; experiment: cells; type: functional, cell-based, Homo sapiens; details: Homo sapiens, UMC-11;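 further: growth inhibition of UMC-11 cells, read out with a cell viability assay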
Description: SANGER: Inhibition of human UMC-11 cell growth in a cell viability assay.

[3] = test system: P31-FUJ; experiment: cells; type: functional, cell-based, Homo sapiens; details: Homo sapiens, P31-FUJ;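 further: growth inhibition of P31-FUJ cells, read out with a viability assay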
Description: SANGER: Inhibition of human P31-FUJ cell growth in a cell viability assay.

[4] = test system: SNU-387; experiment: cells; type: functional, cell-based, Homo sapiens; details: Homo sapiens, SNU-387
Description: SANGER: Inhibition of human SNU-387 cell growth in a cell viability assay.

[5] = test system: K052; experiment: cells; type: functional, cell-based, Homo sapiens; details: Homo sapiens, K052;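 further: Read-out from a cell viability assay, IC50 reflecting suppression of K052 cell growth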
Description: SANGER: Inhibition of human K052 cell growth in a cell viability assay.

[6] = test system: VM-CUB-1; experiment: cells; type: functional, cell-based, Homo sapiens; details: Homo sapiens, VM-CUB-1;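 further: cell viability assay measuring growth inhibition of the human VM-CUB-1 cell line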
Description: SANGER: Inhibition of human VM-CUB-1 cell growth in a cell viability assay.

[7] = test system: PANC-08-13; experiment: cells; type: functional, cell-based, Homo sapiens; details: Homo sapiens, PANC-08-13
Description: SANGER: Inhibition of human PANC-08-13 cell growth in a cell viability assay.

[8] = test system: MDA-MB-231; experiment: cells; type: functional, cell-based, Homo sapiens; details: Homo sapiens, MDA-MB-231
Description: SANGER: Inhibition of human MDA-MB-231 cell growth in a cell viability assay.

[9] = test system: NCI-H1993; experiment: cells; type: functional, cell-based, Homo sapiens; details: Homo sapiens, NCI-H1993;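 further: growth inhibition of the cancer cell line, assessed with a cell viability assay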
Description: SANGER: Inhibition of human NCI-H1993 cell growth in a cell viability assay.

[10] = test system: UACC-893; experiment: cells; type: functional, cell-based, Homo sapiens; details: Homo sapiens, UACC-893
Description: SANGER: Inhibition of human UACC-893 cell growth in a cell viability assay.

[11] = test system: SW1783; experiment: cells; type: functional, cell-based, Homo sapiens; details: Homo sapiens, SW1783
Description: SANGER: Inhibition of human SW1783 cell growth in a cell viability assay.

[12] = test system: SW756; experiment: cells; type: functional, cell-based, Homo sapiens; details: Homo sapiens, SW756;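 further: growth inhibition of human SW756 cells, read out with a cell viability assay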
Description: SANGER: Inhibition of human SW756 cell growth in a cell viability assay.

[13] = test system: CPC-N; experiment: cells; type: functional, cell-based, Homo sapiens; details: Homo sapiens, CPC-N;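 further: growth inhibition of CPC-N cells, with a cell viability assay as the readout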
Description: SANGER: Inhibition of human CPC-N cell growth in a cell viability assay.

[14] = test system: SF-295; experiment: cells; type: functional, cell-based, Homo sapiens; details: Homo sapiens, SF-295;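 further: growth inhibition of SF-295 cells, read out with a cell viability assay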
Description: SANGER: Inhibition of human SF295 cell growth in a cell viability assay.

[15] = test system: CP50-MEL-B; experiment: cells; type: functional, cell-based, Homo sapiens; details: Homo sapiens, CP50-MEL-B;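 further: growth inhibition of the human cell line, measured with a cell viability read-out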
Description: SANGER: Inhibition of human CP50-MEL-B cell growth in a cell viability assay.

[16] = test system: CAL-12T; experiment: cells; type: functional, cell-based, Homo sapiens; details: Homo sapiens, CAL-12T;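 further: growth inhibition of human CAL-12T cells, read out with a cell viability assay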
Description: SANGER: Inhibition of human CAL-12T cell growth in a cell viability assay.

[17] = test system: U2OS; experiment: cells; type: functional, cell-based, Homo sapiens, U-2-OS; details: Homo sapiens, U2OS;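 further: growth inhibition of human U-2-OS cells, determined with a cell viability assay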
Description: SANGER: Inhibition of human U-2-OS cell growth in a cell viability assay.

[18] = test system: OVCAR-8; experiment: cells; type: functional, cell-based, Homo sapiens; details: Homo sapiens, OVCAR-8;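 further: growth inhibition of human OVCAR-8 cells, read out by a cell viability assay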
Description: SANGER: Inhibition of human OVCAR-8 cell growth in a cell viability assay.

[19] = test system: NCI-H64; experiment: cells; type: functional, cell-based, Homo sapiens; details: Homo sapiens, NCI-H64;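 further: growth inhibition of NCI-H64 cells, read out with a cell viability assay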
Description: SANGER: Inhibition of human NCI-H64 cell growth in a cell viability assay.

[20] = test system: EB-3; experiment: cells; type: functional, cell-based, Homo sapiens; details: Homo sapiens, EB-3;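 further: human EB-3 cells, growth inhibition read out via a cell viability assay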
Description: SANGER: Inhibition of human EB-3 cell growth in a cell viability assay.

[21] = test system: NCI-H1651; experiment: cells; type: functional, cell-based, Homo sapiens; details: Homo sapiens, NCI-H1651;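 further: Read-out is a cell viability assay, with IC50 expressing inhibition of NCI-H1651 cell growth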
Description: SANGER: Inhibition of human NCI-H1651 cell growth in a cell viability assay.

[22] = test system: T98G; experiment: cells; type: functional, cell-based, Homo sapiens; details: Homo sapiens, T98G;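 further: growth inhibition of T98G cells, read out by a cell viability assay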
Description: SANGER: Inhibition of human T98G cell growth in a cell viability assay.

[23] = test system: COR-L23; experiment: cells; type: functional, cell-based, Homo sapiens; details: Homo sapiens, COR-L23;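 further: cell viability assay measuring how strongly compounds suppress growth of COR-L23 cells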
Description: SANGER: Inhibition of human COR-L23 cell growth in a cell viability assay.

[24] = test system: MC-CAR; experiment: cells; type: functional, cell-based, Homo sapiens; details: Homo sapiens, MC-CAR;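 further: growth inhibition of the human MC-CAR cell line, read out by a cell viability assay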
Description: SANGER: Inhibition of human MC-CAR cell growth in a cell viability assay.

[25] = test system: ASPC1; experiment: cells; type: functional, cell-based, Homo sapiens; details: Homo sapiens, ASPC1;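 further: growth inhibition of AsPC-1 cells, read out with a cell viability assay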
Description: SANGER: Inhibition of human AsPC-1 cell growth in a cell viability assay.

[26] = test system: NCI-H719; experiment: cells; type: functional, cell-based, Homo sapiens; details: Homo sapiens, NCI-H719;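 further: growth inhibition of the cultured cell line, read out with a viability assay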
Description: SANGER: Inhibition of human NCI-H719 cell growth in a cell viability assay.

[27] = test system: NCI-H2342; experiment: cells; type: functional, cell-based, Homo sapiens; details: Homo sapiens, NCI-H2342;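 further: growth inhibition of the cancer cell line, determined with a cell viability assay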
Description: SANGER: Inhibition of human NCI-H2342 cell growth in a cell viability assay.

[28] = test system: SK-MM-2; experiment: cells; type: functional, cell-based, Homo sapiens; details: Homo sapiens, SK-MM-2;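 further: growth inhibition of human SK-MM-2 cells, read out with a cell viability assay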
Description: SANGER: Inhibition of human SK-MM-2 cell growth in a cell viability assay.

[29] = test system: NCI-H187; experiment: cells; type: functional, cell-based, Homo sapiens; details: Homo sapiens, NCI-H187;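 further: growth inhibition of NCI-H187 cells, read out as cell viability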
Description: SANGER: Inhibition of human NCI-H187 cell growth in a cell viability assay.

[30] = test system: SW48; experiment: cells; type: functional, cell-based, Homo sapiens; details: Homo sapiens, SW48;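 further: growth inhibition of SW48 cells, read out with a cell viability assay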
Description: SANGER: Inhibition of human SW48 cell growth in a cell viability assay.

[31] = test system: Ca-Ski; experiment: cells; type: functional, cell-based, Homo sapiens; details: Homo sapiens, Ca-Ski;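 further: cell viability assay measuring inhibition of Ca-Ski cell growth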
Description: SANGER: Inhibition of human Ca-Ski cell growth in a cell viability assay.

[32] = test system: D-336MG; experiment: cells; type: functional, cell-based, Homo sapiens; details: Homo sapiens, D-336MG
Description: SANGER: Inhibition of human D-336MG cell growth in a cell viability assay.

[33] = test system: A204; experiment: cells; type: functional, cell-based, Homo sapiens; details: Homo sapiens, A204;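 further: growth inhibition of human A204 cells, read out with a cell viability assay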
Description: SANGER: Inhibition of human A204 cell growth in a cell viability assay.

[34] = test system: BPH-1; experiment: cells; type: functional, cell-based, Homo sapiens; details: Homo sapiens, BPH-1;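 further: cell viability assay measuring growth inhibition of human BPH-1 cells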
Description: SANGER: Inhibition of human BPH-1 cell growth in a cell viability assay.

[35] = test system: HuO-3N1; experiment: cells; type: functional, cell-based, Homo sapiens; details: Homo sapiens, HuO-3N1;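 further: cell viability readout used to measure how strongly compounds suppress proliferation of human HuO-3N1 cells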
Description: SANGER: Inhibition of human HuO-3N1 cell growth in a cell viability assay.

[36] = test system: NCCIT; experiment: SANGER: Inhibition of human NCCIT cell growth in a cell viability assay.; type: functional, cell-based; details: Homo sapiens, NCCIT
[37] = test system: SKG-IIIa; experiment: cells; type: functional, cell-based, Homo sapiens; details: Homo sapiens, SKG-IIIa;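 further: cell growth inhibition, read out with a cell viability assay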
Description: SANGER: Inhibition of human SKG-IIIa cell growth in a cell viability assay.

[38] = test system: TUR; experiment: cells; type: functional, cell-based, Homo sapiens; details: Homo sapiens, TUR;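 further: growth inhibition of human TUR cells, read out with a cell viability assay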
Description: SANGER: Inhibition of human TUR cell growth in a cell viability assay.

[39] = test system: NCI-H322M; experiment: cells; type: functional, cell-based, Homo sapiens; details: Homo sapiens, NCI-H322M;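 further: cell viability assay measuring inhibition of growth of human NCI-H322M cells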
Description: SANGER: Inhibition of human NCI-H322M cell growth in a cell viability assay.

[40] = test system: SK-HEP1; experiment: cells; type: functional, cell-based, Homo sapiens, SK-HEP-1; details: Homo sapiens, SK-HEP1;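 further: cell viability readout used to quantify reduction in proliferation of human SK-HEP-1 cells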
Description: SANGER: Inhibition of human SK-HEP-1 cell growth in a cell viability assay.

[41] = test system: MDA-MB-157; experiment: cells; type: functional, cell-based, Homo sapiens; details: Homo sapiens, MDA-MB-157
Description: SANGER: Inhibition of human MDA-MB-157 cell growth in a cell viability assay.

[42] = test system: G-402; experiment: cells; type: functional, cell-based, Homo sapiens; details: Homo sapiens, G-402
Description: SANGER: Inhibition of human G-402 cell growth in a cell viability assay.

[43] = test system: DMS-153; experiment: cells; type: functional, cell-based, Homo sapiens; details: Homo sapiens, DMS-153
Description: SANGER: Inhibition of human DMS-153 cell growth in a cell viability assay.

[44] = test system: MFE-280; experiment: cells; type: functional, cell-based, Homo sapiens; details: Homo sapiens, MFE-280;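 further: growth inhibition of MFE-280 cells, determined with a cell viability readout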
Description: SANGER: Inhibition of human MFE-280 cell growth in a cell viability assay.

[45] = test system: SiHa; experiment: cells; type: functional, cell-based, Homo sapiens; details: Homo sapiens, SiHa;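 further: Viability-based readout of growth inhibition in SiHa cells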
Description: SANGER: Inhibition of human SiHa cell growth in a cell viability assay.

Molecule N#Cc1c(O)c2c(-c3ccc(-c4ccccc4O)cc3)csc2[nH]c1=O has an IC50 [1] of over 1.02 µM, an IC50 [2] of over 1.02 µM and an IC50 [3] of over 1.02 µM. It also gave an IC50 [4] of over 1.02 µM, an IC50 [5] of 0.791 µM and an IC50 [6] of over 1.02 µM. The IC50 [7] was over 1.02 µM, the IC50 [8] was over 1.02 µM and the IC50 [9] was over 1.02 µM. The IC50 [10] was over 1.02 µM, the IC50 [11] was over 1.02 µM and the IC50 [12] was over 1.02 µM. It also gave an IC50 [13] of over 1.02 µM, an IC50 [14] of over 1.02 µM and an IC50 [15] of over 1.02 µM. The IC50 [16] was over 1.02 µM, the IC50 [17] was over 1.02 µM and the IC50 [18] was over 1.02 µM. It also gave an IC50 [19] of over 1.02 µM, an IC50 [20] of 0.293 µM and an IC50 [21] of over 1.02 µM. For the same molecule, the IC50 [22] was over 1.02 µM, the IC50 [23] was over 1.02 µM and the IC50 [24] was 0.172 µM. It also gave an IC50 [25] of over 1.02 µM, an IC50 [26] of over 1.02 µM and an IC50 [27] of over 1.02 µM. For the same molecule, the IC50 [28] was 0.109 µM, the IC50 [29] was 0.545 µM and the IC50 [30] was over 1.02 µM. For the same molecule, the IC50 [31] was over 1.02 µM, the IC50 [32] was over 1.02 µM and the IC50 [33] was over 1.02 µM. It also gave an IC50 [34] of over 1.02 µM, an IC50 [35] of over 1.02 µM and an IC50 [36] of over 1.02 µM. It also gave an IC50 [37] of over 1.02 µM, an IC50 [38] of 0.345 µM and an IC50 [39] of over 1.02 µM. The IC50 [40] was over 1.02 µM, the IC50 [41] was 0.824 µM and the IC50 [42] was over 1.02 µM. For the same molecule, the IC50 [43] was 0.373 µM, the IC50 [44] was over 1.02 µM and the IC50 [45] was over 1.02 µM.

For COc1cc2ncn(-c3cc(OCc4ccccc4C(F)(F)F)c(C(N)=O)s3)c2cc1OC [GW843682X], the IC50 [3] was over 0.256 µM, the IC50 [5] was 0.0354 µM and the IC50 [13] was 0.0412 µM. It also gave an IC50 [19] of over 0.256 µM, an IC50 [20] of over 0.256 µM and an IC50 [24] of 0.0761 µM. For the same molecule, the IC50 [26] was over 0.256 µM, the IC50 [28] was over 0.256 µM and the IC50 [29] was 0.0233 µM. For the same molecule, the IC50 [32] was over 0.256 µM, the IC50 [36] was 0.0599 µM and the IC50 [38] was over 0.256 µM. For the same molecule, the IC50 [39] was over 0.256 µM and the IC50 [43] was over 0.256 µM.
